According to US20260138990A1, “TRICYCLIC FUSED IMIDAZOLE COMPOUNDS AS CD38 MODULATORS AND USES THEREOF” (AEOVIAN PHARMACEUTICALS, INC., priority 2023, published 2026):

Key:
human CD38 = target: T1, human CD38 (Homo sapiens, UniProt P28907); test: NAD+ cyclase activity assay with human recombinant CD38 protein (ε-NAD fluorescence); assay type: biochemical; details: 1.9 nM human CD38, substrate ε-NAD, 30 min preincubation, fluorescence 300/410 nm
T1 construct: purchased Bio-Techne GmbH AVI2404
T1 sequence (P28907 1-300): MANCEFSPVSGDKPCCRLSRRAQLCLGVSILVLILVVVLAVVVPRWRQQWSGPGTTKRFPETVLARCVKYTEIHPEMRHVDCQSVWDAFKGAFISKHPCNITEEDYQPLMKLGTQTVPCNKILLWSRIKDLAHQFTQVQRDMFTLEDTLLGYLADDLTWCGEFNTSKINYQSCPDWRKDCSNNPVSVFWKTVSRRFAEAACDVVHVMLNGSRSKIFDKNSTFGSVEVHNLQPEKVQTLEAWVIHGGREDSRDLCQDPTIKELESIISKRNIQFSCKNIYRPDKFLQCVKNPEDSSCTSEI
Procedure, shortened: (§1)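 Twelve-point threefold compound dilutions were given 30 min at room temperature with 0.6 nM mouse or 1.9 nM human CD38 before […] ε-NAD was added (pH 7.5 HEPES/sucrose/Tween buffer). The rate came from the linear-phase slope of ex 300/em 410 nm fluorescence against vehicle and no-CD38 controls.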

mouse CD38 = target: T2, mouse CD38 (Mus musculus, UniProt P56528); test: NAD+ cyclase activity assay with mouse recombinant CD38 protein (ε-NAD fluorescence); assay type: biochemical; details: 0.6 nM mouse CD38, substrate ε-NAD, 30 min preincubation, fluorescence 300/410 nm
T2 construct: purchased Bio-Techne GmbH 4947-AC
T2 sequence (P56528 1-304): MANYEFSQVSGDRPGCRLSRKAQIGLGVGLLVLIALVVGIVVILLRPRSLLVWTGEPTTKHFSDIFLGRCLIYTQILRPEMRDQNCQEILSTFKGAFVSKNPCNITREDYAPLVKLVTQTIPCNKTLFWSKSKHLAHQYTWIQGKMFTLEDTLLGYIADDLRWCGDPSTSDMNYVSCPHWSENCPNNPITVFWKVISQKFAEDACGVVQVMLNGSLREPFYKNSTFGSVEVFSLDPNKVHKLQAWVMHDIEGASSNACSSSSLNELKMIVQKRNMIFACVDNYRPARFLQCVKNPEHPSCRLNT
Procedure, shortened: as §1

Row | IC50 (human CD38) [nM] | IC50 (mouse CD38) [nM] | Compound
1 | 30 to 100 | 1 to 10 | CC1(F)CC(NC(=O)c2ccc3c(c2)-c2cncn2CCO3)C1 (stereo not drawn) [Compound 136A, N-(3-Fluoro-3-methylcyclobutyl)-5,6-dihydrobenzo[f]imidazo[1,5-d][1,4]oxazepine-10-carboxamide]
2 | < 30 | < 1 | O=C(NC1CCC(F)(F)CC1)c1cc(Cl)c2c(c1)-c1cncn1CCO2 [Compound 137A, 8-Chloro-N-(4,4-difluorocyclohexyl)-5,6-dihydrobenzo[f]imidazo[1,5-d][1,4]oxazepine-10-carboxamide]
3 | < 30 | 1 to 10 | CC1(F)CC(NC(=O)c2cc(F)c3c(c2)-c2cncn2CCO3)C1 (stereo not drawn) [Compound 138A, 8-Fluoro-N-(3-fluoro-3-methylcyclobutyl)-5,6-dihydrobenzo[f]imidazo[1,5-d][1,4]oxazepine-10-carboxamide]
4 | < 30 | < 1 | O=C(NC1CCC1(F)F)c1ccc2c(c1)-c1cncn1CCO2 (stereo not drawn) [Compound 139A, N-(2,2-Difluorocyclobutyl)-5,6-dihydrobenzo[f]imidazo[1,5-d][1,4]oxazepine-10-carboxamide]
5 | < 30 | < 1 | O=C(NC1CCC1(F)F)c1cc(F)c2c(c1)-c1cncn1CCO2 (stereo not drawn) [Compound 140A, N-(2,2-Difluorocyclobutyl)-8-fluoro-5,6-dihydrobenzo[f]imidazo[1,5-d][1,4]oxazepine-10-carboxamide]
6 | < 30 | 1 to 10 | CC1(C)CC(NC(=O)c2ccc3c(c2)-c2cncn2CCO3)C1 [Compound 141A, N-(3,3-Dimethylcyclobutyl)-5,6-dihydrobenzo[f]imidazo[1,5-d][1,4]oxazepine-10-carboxamide]
7 | < 30 | < 1 | CC1(C)CC(NC(=O)c2cc(F)c3c(c2)-c2cncn2CCO3)C1 [Compound 143A, N-(3,3-Dimethylcyclobutyl)-8-fluoro-5,6-dihydrobenzo[f]imidazo[1,5-d][1,4]oxazepine-10-carboxamide]
8 | < 30 | 1 to 10 | COCC1COc2cc(NC(=O)c3ccc4c(c3)-c3cncn3CCO4)cnc2O1 (stereo not drawn) [Compound 144A, N-(3-(Methoxymethyl)-2,3-dihydro-[1,4]dioxino[2,3-b]pyridin-7-yl)-5,6-dihydrobenzo[f]imidazo[1,5-d][1,4]oxazepine-10-carboxamide]
9 | < 30 | 1 to 10 | COCC1COc2ncc(NC(=O)c3ccc4c(c3)-c3cncn3CCO4)cc2O1 (stereo not drawn) [Compound 145A, N-(2-(Methoxymethyl)-2,3-dihydro-[1,4]dioxino[2,3-b]pyridin-7-yl)-5,6-dihydrobenzo[f]imidazo[1,5-d][1,4]oxazepine-10-carboxamide]
10 | 30 to 100 | 10 to 100 | CS(=O)(=O)C1CCC(NC(=O)c2ccc3c(c2)-c2cncn2CCO3)CC1 (stereo not drawn) [Compound 146A, N-(4-(Methylsulfonyl)cyclohexyl)-5,6-dihydrobenzo[f]imidazo[1,5-d][1,4]oxazepine-10-carboxamide]
11 | < 30 | 1 to 10 | O=C(NC1CCCC(C(F)(F)F)C1)c1ccc2c(c1)-c1cncn1CCO2 (stereo not drawn) [Compound 151A, N-(3-(Trifluoromethyl)cyclohexyl)-5,6-dihydrobenzo[f]imidazo[1,5-d][1,4]oxazepine-10-carboxamide]
12 | < 30 | < 1 | O=C(NC1CCC(F)(F)CC1)c1cc2c(c(F)c1F)OCCn1cncc1-2 [Compound 154A, N-(4,4-Difluorocyclohexyl)-8,9-difluoro-5,6-dihydrobenzo[f]imidazo[1,5-d][1,4]oxazepine-10-carboxamide]
13 | < 30 | < 1 | O=C(N[C@H]1CC[C@H](OCC(F)(F)F)CC1)c1cc(F)c2c(c1)-c1cncn1CCO2 [Compound 155A, 8-Fluoro-N-((1r,4r)-4-(2,2,2-trifluoroethoxy)cyclohexyl)-5,6-dihydrobenzo[f]imidazo[1,5-d][1,4]oxazepine-10-carboxamide]
14 | 30 to 100 | 10 to 100 | O=C(N[C@H]1CC[C@@H](OCC(F)(F)F)CC1)c1cc(F)c2c(c1)-c1cncn1CCO2 [Compound 156A, 8-Fluoro-N-((1s,4s)-4-(2,2,2-trifluoroethoxy)cyclohexyl)-5,6-dihydrobenzo[f]imidazo[1,5-d][1,4]oxazepine-10-carboxamide]

Further lines, the compound ahead of its results:

Row | Compound | IC50 (human CD38) [nM] | IC50 (mouse CD38) [nM]
15 | O=C(Nc1cnc2c(c1)OCCO2)c1cc(Cl)c2c(c1)-c1cncn1CCO2 [Compound 129A, 8-Chloro-N-(2,3-dihydro-[1,4]dioxino[2,3-b]pyridin-7-yl)-5,6-dihydrobenzo[f]imidazo[1,5-d][1,4]oxazepine-10-carboxamide] | < 30 | 1 to 10
16 | O=C(N[C@@H]1CCCOC1)c1cc(F)c2c(c1)-c1cncn1CCO2 [Compound 130A, (R)-8-Fluoro-N-(tetrahydro-2H-pyran-3-yl)-5,6-dihydrobenzo[f]imidazo[1,5-d][1,4]oxazepine-10-carboxamide] | 30 to 100 | 1 to 10
17 | CCC(O)(CN[C@H]1CC[C@H](NC(=O)c2ccc3c(c2)-c2cncn2CCO3)CC1)C(F)(F)F (stereo partly drawn) [Compound 131A, N-((1r,4r)-4-((2-Hydroxy-2-(trifluoromethyl)butyl)amino)cyclohexyl)-5,6-dihydrobenzo[f]imidazo[1,5-d][1,4]oxazepine-10-carboxamide] | < 30 | < 1
18 | O=C(N[C@@H]1CCS(=O)(=O)C1)c1cc(F)c2c(c1)-c1cncn1CCO2 [Compound 132A, (R)—N-(1,1-Dioxidotetrahydrothiophen-3-yl)-8-fluoro-5,6-dihydrobenzo[f]imidazo[1,5-d][1,4]oxazepine-10-carboxamide] | < 30 | 1 to 10
19 | CC(C1CCC(NC(=O)c2ccc3c(c2)-c2cncn2CCO3)CC1)C(F)(F)F (stereo not drawn) [Compound 133A, N-(4-(1,1,1-Trifluoropropan-2-yl)cyclohexyl)-5,6-dihydrobenzo[f]imidazo[1,5-d][1,4]oxazepine-10-carboxamide] | 30 to 100 | 1 to 10
20 | O=C(NC1CC(F)(F)C1)c1cc(Cl)c2c(c1)-c1cncn1CCO2 [Compound 134A, 8-Chloro-N-(3,3-difluorocyclobutyl)-5,6-dihydrobenzo[f]imidazo[1,5-d][1,4]oxazepine-10-carboxamide] | < 30 | < 1
21 | O=C(NC1CC(F)(F)C1)c1cc(F)c2c(c1)-c1cncn1CCO2 [Compound 135A, N-(3,3-Difluorocyclobutyl)-8-fluoro-5,6-dihydrobenzo[f]imidazo[1,5-d][1,4]oxazepine-10-carboxamide] | < 30 | < 1
22 | O=C(N[C@H]1CC[C@H](O[C@H]2C[C@@H](F)C2)CC1)c1ccc2c(c1)-c1cncn1CCO2 [Compound 147A, N-((1r,4r)-4-((1s,3s)-3-Fluorocyclobutoxy)cyclohexyl)-5,6-dihydrobenzo[f]imidazo[1,5-d][1,4]oxazepine-10-carboxamide] | < 30 | 1 to 10
23 | O=C(N[C@H]1CC[C@H](O[C@H]2C[C@H](F)C2)CC1)c1ccc2c(c1)-c1cncn1CCO2 [Compound 148A, N-((1r,4r)-4-((1r,3r)-3-Fluorocyclobutoxy)cyclohexyl)-5,6-dihydrobenzo[f]imidazo[1,5-d][1,4]oxazepine-10-carboxamide] | < 30 | 1 to 10
24 | O=C(N[C@H]1CC[C@@H](O[C@H]2C[C@@H](F)C2)CC1)c1ccc2c(c1)-c1cncn1CCO2 [Compound 149A, N-((1s,4s)-4-((1s,3s)-3-Fluorocyclobutoxy)cyclohexyl)-5,6-dihydrobenzo[f]imidazo[1,5-d][1,4]oxazepine-10-carboxamide] | 100 to 1000 | 10 to 100
25 | O=C(N[C@H]1CC[C@@H](O[C@H]2C[C@H](F)C2)CC1)c1ccc2c(c1)-c1cncn1CCO2 [Compound 150A, N-((1s,4s)-4-((1r,3r)-3-Fluorocyclobutoxy)cyclohexyl)-5,6-dihydrobenzo[f]imidazo[1,5-d][1,4]oxazepine-10-carboxamide] | 100 to 1000 | > 100
26 | O=C(N[C@H]1CC[C@H](OC2CC(F)(F)C2)CC1)c1ccc2c(c1)-c1cncn1CCO2 [Compound 152A, N-((1r,4r)-4-(3,3-Difluorocyclobutoxy)cyclohexyl)-5,6-dihydrobenzo[f]imidazo[1,5-d][1,4]oxazepine-10-carboxamide] | < 30 | 1 to 10
27 | O=C(N[C@H]1CC[C@@H](OC2CC(F)(F)C2)CC1)c1ccc2c(c1)-c1cncn1CCO2 [Compound 153A, N-((1s,4s)-4-(3,3-Difluorocyclobutoxy)cyclohexyl)-5,6-dihydrobenzo[f]imidazo[1,5-d][1,4]oxazepine-10-carboxamide] | 100 to 1000 | 10 to 100
